# Reference: patent publication EP0126012B1, “Pharmaceutical compositions containing symmetrical disulfides” (SANOFI S.A., priority 1983, dated 1984)
# Tested on: globules rouges des drépanocytaires
# Experiment: Inhibition of sickling of human erythrocytes from sickle-cell patients under deoxygenation (Nomarski microscopy)
# Assay type: cell-based, humains
# Details: inhibition de la falciformation des érythrocytes; incubation 1 h at 37°C, pH 7,40, with product; molar ratio produit/hémoglobine initially 0,5 to 20; ratio used for the table values not given
# Experimental: L'inhibition de la falciformation des érythrocytes humains a été évaluée selon la méthode consistant à laver et incuber dans un tampon salin (pH 7,40 - 0,15 M), les globules rouges des drépanocytaires pendant une heure à 37°C dans un bainmarie sous agitation circulaire en présence du produit ci-dessus à différentes concentrations. Dans cette opération le rapport molaire produit/hémoglobine est testé initialement dans l'intervalle allant de 0,5 à 20. En fonction des résultats obtenus, ce rapport est modifié. A la fin de l'incubation, l'excès de produit est enlevé par lavage. La suspension cellulaire ajustée à un hématocrite de 5 % est transférée dans un Erlenmeyer et incubée à 37°C sous un courant d'un mélange humidifié d'azote et d'oxygène. La concentration d'oxygène est réglée par une pompe à mélange gazeux. Le gaz effluent est transféré dans un autre tube contenant du formaldéhyde. A la fin de l'incubation, la suspension cellulaire est transférée dans le formaldéhyde par simple retournement de la fiole.
# La proportion des cellules déformées et de celles ayant les caractéristiques de drépanocytes (présentant deux prolongements filiformes) est évaluée à l'aide d'un microscope ayant une optique interférentielle de NOMARSKY. L'inhibition de la falciformation a été calculée selon la formule suivante: • % cellules falciformées - % cellules falciformées en témoins présence de la drogue % cellules falciformées du témoin
row,SMILES,% inhibition [%]
1,"c1c[nH]c(SSc2ncc[nH]2)n1 [2,2'-dithiodi(1H-imidazole)]",80
2,"C1CSC(SSC2=NCCS2)=N1 [2,2'-dithiodi(4,5-dihydrothiazole)]",90
3,"c1cnc(SSc2ncccn2)nc1 [2,2'-dithiodipyrimidine]",50
4,"c1nc(SSc2nc[nH]n2)n[nH]1 [3,3'-dithiodi(1H-1,2,4-triazole)]",100
5,"NCCSSCCN [cystamine, reference compound]",33
6,NC(=O)CSSCC(N)=O [dithio-diacétamide],80
7,"CN(C)C(=O)CSSCC(=O)N(C)C [dithiodi(N,N-diméthyl)acétamide]",95
8,N=C(N)SSC(=N)N [dithiodiformamidine],100

# Tested on: falciformation
# Experiment: not given
# Details: literature (Inserm Symposium 1979); cited from earlier work
row,SMILES,inhibition de la falciformation
1,"NCCSSCCN [cystamine, reference compound]",particulièrement active
